Measured values reported in US9611281B2, “BODIPY derivatives and methods of synthesis and use thereof” (The Board of Regents of the University of Oklahoma, priority 2013, dated 2017).

Tests used:
colon-26 tumor model = test: In vivo PDT response following SBDPiR690 treatment; design: species or system Balb/c mice
Method: 25 animals were divided into 4 groups: control, dark control (SBDPiR690 only), light control (light only), and SBDPiR690-with light exposure (PDT). SBDPiR690 was intravenously injected into mice with colon-26 tumor model, followed by light illumination after 15 minutes postinjection using a light dose of 100 mW/cm^2 (FIGS. 28-29). Mice body weight and tumor response at high light doses (˜500 J cm^−2) were used for initial toxicity profiles.

colon cancer tumors = test: H&E histology of tumors after SBDPiR690 PDT; assay type: in vivo, Balb/c mice; details: 1 day post treatment
Source text: To access the effect of SBDPiR690 on the tumor regions, tumor samples were collected from SBDPiR690 treated and control mice 1 day post treatment. The samples were fixed, embedded, sectioned, and stained using hematoxylin and eosin.

[1] = Optical properties (absorption, emission, extinction coefficient) of BDP635 and derivative SBDPiRs; assay type: physicochemical
[2] = Real time whole body imaging of SBDPiR690 clearance and biodistribution; design: species or system mice; details: mouse, in vivo
Method: The inherent fluorescent properties of SBDPiR690 enabled its use in real time whole body imaging to evaluate the clearance and biodistribution of the drug in organs, making it an applicable theranostic agent. The drug clears from organs and tissue by 24 hours, reducing the occurrence of skin photo-toxicity, which is a major problem among photosensitizers. […] These findings show the effectiveness of SBDPiR690 as a photosensitizer for use in PDT in clinical setting.

[3] = Drug biodistribution of SBDPiR715; assay type: in vivo, Balb/c mice; details: 5 μmol/kg i.p., 24 hours postinjection
Method: Mice were injected via i.p. with SBDPiR715 (5 μmol/kg/3.7 mg/kg). After 24 hours postinjection, the mice (n=3) were euthanized by CO2 inhalation. Tissues were excised from major organs and tumor. Collected tissues were rinsed with PBS and blotted dry. One hundred milligram of excised tissue was homogenized with CHCl3 (1 ml). The homogenates were centrifuged at 5160 g for 20 minutes, and the supernatant was used for fluorescence measurement (excitation at 710 nm and emission at 754 nm). The amount of compound in each sample was evaluated relative to the standard curve and expressed in “mg/g of tissue” unit.

colon-26 tumors = test: In vivo SBDPiR715-mediated PDT
Method: PS: To obtain an injection solution of SBDPiR715, the emulsifier Tween 80 was used. Tween 80 is a nonionic surfactant, frequently used in vivo as a solubilizing agent for highly lipophilic therapeutics. The formulation procedure required dissolving the PS in a minimal amount of Tween 80 (100 μl). The paste was allowed to stand overnight. 5% Dextrose in phosphate-buffered saline (PBS) solution was added, and the solution was sonicated for 1 hour. The resulting green solution was filtered through a 0.2 μm membrane filter. To ensure the accuracy of the concentration, which might vary due to partial solubility of the PS, the exact concentration was confirmed by UV-visible spectral analysis of the solutions prior to dosing.
Cells and Animal Models: Colon-26 mouse carcinoma cells were obtained from the American Type Culture Collection (ATCC) and cultured in minimum essential medium supplemented with 10% (v/v) fetal calf serum (FCS), 50 U ml^−1 penicillin, 50 μg ml^−1 streptomycin, and 1% (v/v) L-glutamine. The cells were maintained in 5% CO2 (v/v) and 21% O2 (v/v) at 37° C. All animal experiments were approved by IACUC of the University of Oklahoma Health Sciences Center. Female BALB/c mice were received from Charles River at 6-8 weeks old. Balb/c mice were shaved on the upper back and depilated with Nair (Carter-Wallace Inc., New York, N.Y., USA). Mice were anesthetized with an i.p. injection of ketamine/xylazine cocktail (90 mg kg^−1 ketamine and 10 mg kg xylazine). One million colon-26 cells were injected subcutaneously in one dorsal neck area suspended in […] PBS. Tumors grew predictably in all the mice and reached a size of 4- to 6-mm diameter in 5-7 days, or 8-11 mm in 14-16 days after injection, at which time they were used for PDT.
SBDPiR715 in 1% Tween 80-5% Dextrose solvent was injected i.p. at a dose of 3 μmol/kg (2.2 mg/kg) and 5 μmol/kg (3.7 mg/kg) in 0.2 ml solution. Tumors were irradiated 6 hours, 24 hours, or 32 hours after the injection using a Lumacare LC-122M with a fiber-optic light delivery system (Lumacare, Newport Beach, Calif., USA) emitting light at 700 nm (±40 nm). […] No evident temperature increase was detected at the site of irradiation. Mice were anesthetized as described above, and the tumor-bearing limb was positioned under the spot. Total dose of 200-300 mW/cm^2 was delivered for 30 minutes (360-540 J cm^−2). Mice bearing colon-26 tumors were also irradiated without having received injection of SBDPiR715. Another group of animals was treated with SBDPiR715 i.p. without irradiation. After irradiation, mice were allowed to recover in an animal cotton blanket until they resumed normal activity. A positive tumor response was ascribed to tumors that appeared flat blackened or reddened scarp and necrotic tissue within a few days after PDT. Animals were considered cured after complete tumor regression and the absence of a palpable tumor.

[4] = Singlet oxygen generation, indirect method of DPBF photooxidation; details: DPBF photooxidation monitored at 410 nm
Method: Singlet oxygen generation and photostability: A singlet oxygen generation experiment on compound 53 using the indirect method of DPBF photooxidation was performed. There were strong similarities of the behavior of 53 towards DPBF with SBDPiR715. […] The photooxidation of DPBF was monitored by UV-vis spectrophotometer at 410 nm. […] Additionally, less than 30% of 53 photobleached under the harsh light illumination condition over a period of an hour, which is a strong evidence for photostability (FIG. 21).

Structure (SMILES)	palpable tumor (colon-26 tumor model; 60 days post-treatment)	tumor volume (colon-26 tumor model; SBDPiR690-induced PDT)	tumor necrosis (colon-26 tumor model; after 24-72 h, light fluence 150 J cm^−2)	survival (colon-26 tumor model; after 60 days, SBDPiR690-induced PDT) [%]	oedema and inflammation (colon-26 tumor model; after PDT)	body weight (colon-26 tumor model; high light doses (~500 J cm^−2))	tissue morphology (H&E) (colon cancer tumors)	ε [1]	λabs [1] [nm]	λflu [1] [nm]	clearance from organs and tissue [2] [h]	organ biodistribution [3]	extent of necrosis (colon-26 tumors; 6 and 24 hour drug-light interval)	extent of necrosis (colon-26 tumors; 32 hour drug-light interval)	tumor healing time (colon-26 tumors; after PDT, with remodeling of damaged tissue) [days]	tumor response to PDT (colon-26 tumors; all treatment groups (6, 24, 32 h drug-light interval), monitored for 90 days)	weight loss / visual signs of toxicity (colon-26 tumors; treatment dose 5 μmol/kg (3.7 mg/kg) i.p.)	onset of tumor necrosis after PDT (colon-26 tumors; treatment groups)	singlet oxygen generation [4]
F[B-]1(F)n2c(cc3sc(-c4ccccc4)cc32)C(C(F)(F)F)=C2C=c3sc(-c4ccccc4)cc3=[N+]21 [SBDPiR690, 2,8-Di(phenyl)-1-trifluoromethyl-dithieno[2,3-b]-[3,2-g]-5,5-difluoro-5-bora-3a,4a-diaza-s-indacene]	no palpable tumor observed	elimination of tumors	Mass necrosis localized at the tumor region	100	oedema and inflammation was observable after 24 hours, but healed after a few days	fairly constant	necrosis associated with the treated mice	120 000 M^−1 cm^−1	688	700	≤ 24	–	–	–	–	–	–	–	–
COc1ccc(-c2sc3c(c2Br)=[N+]2C(=C(C(F)(F)F)c4cc5sc(-c6ccc(OC)cc6)c(Br)c5n4[B-]2(F)F)C=3)cc1 [SBDPiR715]	–	–	–	–	–	–	–	–	–	–	–	a higher accumulation of SBDPiR715 was observed in the liver and spleen	necrosis spread to neighboring skin regions	confinement of necrosis to the tumor region	~30	complete tumor ablation	No weight loss or other visual signs of toxicity	mass necrosis and eschar within a day	effective singlet oxygen generation
